Where a name gives a salt, the structure may show the parent alone. Read-outs that look alike come from different tables or passages of the source.

The target of one assay is Ba/F3 KRAS-G12D cells (Homo sapiens, UniProt P01116, G12D, cells depend on it). As to the kind of experiment: Proliferation inhibitory activity on Ba/F3 KRAS-G12D stably transfected cell line (CellTiter-Glo, 72 hours). The assay is classed as cell-based, mouse. Particulars: read-out: Ba/F3 KRAS-G12D IC50. The text has this:
(§1) Test Example 1: Proliferation Inhibitory Activity on Ba/F3 KRAS-G12D, Ba/F3 KRAS-G12V Stably Transfected Cell Lines and AGS Tumor Cell Lines Containing KRAS G12D Mutations
(§2) To determine the proliferation inhibitory activity of the compounds in vitro on mouse pro-B cells Ba/F3 (Ba/F3 KRAS-G12D and Ba/F3 KRAS-G12V cells stably expressing KRAS G12D/V mutant proteins) and gastric cancer AGS cells expressing KRAS G12D mutant protein.
(§3) Cell sources. Ba/F3 KRAS-G12D and Ba/F3 KRAS-G12V were purchased from Kyinno Biotech (Beijing) Co., Ltd, Cat. No.: KC-1259 and KC-1261, respectively; AGS was purchased from Shanghai Bioleaf Biotech Co., Ltd.
(§4) Cells in the logarithmic growth phase were seeded in a 96-well plate (8000, 8000, 4000 cells/well, 90 μL/well for Ba/F3 KRAS-G12D, Ba/F3 KRAS-G12V, and AGS cells respectively), incubated at 37° C. for 1 day with 5% CO2, and then a gradient dilution of the test compound was added thereto (compounds 1 to 28 and comparative compounds). The details were as follows, the compound stock solution (10 mM) previously dissolved in DMSO was diluted to 10 gradient concentrations at a fold ratio (4 fold) and diluted to 10 fold of the target concentration in another 96-well plate with culture medium, and then 10 μL/well of the compound solution was added to the 96-well plate seeded with cells to reach the target concentration (10000, 2500, 625, 156, 39, 10, 2.5, 0.6, 0.15, 0.04 nM). Each concentration was provided with 3 duplicate wells and a blank control. After continued incubation at 37° C. and 5% CO2 for 72 hours, 50 μL of CellTiter-Glo*2.0 reagent (luciferase ATP bioluminescence detection reagent, purchased from Promega, Cat. No.: G9243) was added to each well, shaken for 2 minutes, and incubated at room temperature for 8 minutes, and then fluorescence luminescence intensity was detected (light collection time was 100 ms). The inhibitory rate of compounds with various concentrations on cell proliferation was calculated. Cell proliferation inhibition rate (%)=[(luminous intensitycontrol group containing cell culture medium for 72 hour−luminous intensitycompound group for 72 hour)/(luminous intensitycontrol group containing cell culture medium for 72 hours−luminous intensitycontrol group without cell culture medium for 72 hour)]×100%. GraphPad Prism 8.3 software was used to analyze the data, and nonlinear S-curve regression was used to fit the data to obtain a dose-effect curve, from which the IC50 value was calculated.

The target of a further assay is Ba/F3 KRAS-G12V cells (Homo sapiens, UniProt P01116, G12V, cells depend on it). As to the kind of experiment: Proliferation inhibitory activity on Ba/F3 KRAS-G12V stably transfected cell line (CellTiter-Glo, 72 hours). In kind it is cell-based, mouse. Particulars: read-out: Ba/F3 KRAS-G12V IC50.
Ba/F3 KRAS-G12V cells, sequence (P01116 whole entry G12V): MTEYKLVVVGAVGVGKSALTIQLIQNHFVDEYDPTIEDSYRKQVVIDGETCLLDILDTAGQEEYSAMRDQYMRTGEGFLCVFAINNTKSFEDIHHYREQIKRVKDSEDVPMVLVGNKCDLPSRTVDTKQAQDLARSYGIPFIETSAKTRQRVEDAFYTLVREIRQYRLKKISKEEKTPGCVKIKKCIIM
Source text: as §1, §2, §3, §4

In a further assay the test system is AGS cells. Nature of the assay: Proliferation inhibitory activity on AGS tumor cell line containing KRAS G12D mutation (CellTiter-Glo, 72 hours). In kind it is cell-based.
Source text: as §1, §2, §3, §4
For orientation: ATP-based viability assays read luminescence as a measure of living cells.

Ba/F3 KRAS-G12D cells, sequence (P01116 whole entry G12D): as the sequence (P01116 whole entry G12V) above, with V12D counted along it

As a reminder, the IC50 is the concentration at which inhibition is half-maximal. Read a low IC50 as greater potency in that assay. Regarding `C#Cc1c(F)ccc2cc(O)cc(-c3ncc4c(N5CCC(N)C(F)(F)C5)nc(OC[C@@]56CCCN5C[C@H](F)C6)nc4c3F)c12` (single isomer, unassigned) [Compound 20-P1], the GI50 at Ba/F3 KRAS-G12D cells is at most 100 nM; at Ba/F3 KRAS-G12V cells it was 5 to 10 µM. In the assay with AGS cells (Homo sapiens), this compound gave a half-maximal inhibitory concentration (IC50) of 100 to 5000 nM.

Turning to `C#Cc1c(F)ccc2cc(O)cc(-c3ncc4c(N5CCC(N)C(F)(F)C5)nc(OC[C@@]56CCCN5C[C@H](F)C6)nc4c3F)c12` (single isomer, unassigned) [Compound 20-P2], the results for the GI50 on Ba/F3 KRAS-G12D cells and at Ba/F3 KRAS-G12V cells were 100 to 5000 nM and 5 to 10 µM, respectively. This compound showed an IC50 in the assay with AGS cells of 100 to 5000 nM.

On to `C#Cc1c(F)ccc2cc(O)cc(-c3ncc4c(N5C[C@H](N)CC(F)(F)C5)nc(OC[C@@]56CCCN5C[C@H](F)C6)nc4c3F)c12` [Compound 6-P1, 4-(4-((R)-5-Amino-3,3-difluoropiperidin-1-yl)-8-fluoro-2-(((2R,7aS)-2-fluorotetrahydro-1H-pyrrolizin-7a(5H)-yl)methoxy)pyrido[4,3-d]pyrimidin-7-yl)-5-ethynyl-6-fluoronaphthalen-2-ol], for which the GI50 at Ba/F3 KRAS-G12D cells fell in the range of 100 to 5000 nM; at Ba/F3 KRAS-G12V cells, 5 to 10 µM. In the assay with AGS cells (Homo sapiens), this compound registered an IC50 of 5000 to 10000 nM.

`C#Cc1c(F)ccc2cc(O)cc(-c3ncc4c(N5C[C@@H](N)CC(F)(F)C5)nc(OC[C@@]56CCCN5C[C@H](F)C6)nc4c3F)c12` [Compound 6-P2, 4-(4-((S)-5-amino-3,3-difluoropiperidin-1-yl)-8-fluoro-2-(((2R,7aS)-2-fluorotetrahydro-1H-pyrrolizin-7a(5H)-yl)methoxy)pyrido[4,3-d]pyrimidin-7-yl)-5-ethynyl-6-fluoronaphthalen-2-ol]: the figures for the GI50 at Ba/F3 KRAS-G12D cells and on Ba/F3 KRAS-G12V cells were at most 100 nM and 5 to 10 µM, respectively. Besides, in the assay on AGS cells (Homo sapiens), the concentration for half-maximal inhibition (IC50) was 100 to 5000 nM.

Turning to `C#Cc1c(F)ccc2cc(O)cc(-c3ncc4c(N5C[C@H]6C[C@@]6(N)C5)nc(OC[C@@]56CCCN5C[C@H](F)C6)nc4c3F)c12` [Compound 10, 4-(4-((1S,5R)-1-Amino-3-azabicyclo[3.1.0]hexan-3-yl)-8-fluoro-2-(((2R,7aS)-2-fluorohexahydro-1H-pyrrolizin-7a-yl)methoxy)pyrido[4,3-d]pyrimidin-7-yl)-5-ethynyl-6-fluoronaphthalen-2-ol bis(2,2,2-trifluoroacetate)], the results for the GI50 on Ba/F3 KRAS-G12D cells and on Ba/F3 KRAS-G12V cells were 100 to 5000 nM and 5 to 10 µM, respectively. Further, the half-maximal inhibitory concentration (IC50) in the assay with AGS cells (Homo sapiens) lay within 100 to 5000 nM.

On to `Cc1cc(N)nc(-c2nc(Cl)c3c(N4C[C@H]5CC[C@@H](C4)N5)nc(OC[C@@]45CCCN4C[C@H](F)C5)nc3c2F)c1C(F)(F)F` [Compound 17, 6-(4-((1R,5S)-3,8-Diazabicyclo[3.2.1]octan-3-yl)-5-chloro-8-fluoro-2-(((2R,7aS)-2-fluorohexahydro-1H-pyrrolizin-7a-yl)methoxy)pyrido[4,3-d]pyrimidin-7-yl)-4-methyl-5-(trifluoromethyl)pyridin-2-amine bis(2,2,2-trifluoroacetate)], for which the GI50 on Ba/F3 KRAS-G12D cells fell in the range of 100 to 5000 nM; on Ba/F3 KRAS-G12V cells, 5 to 10 µM. For the same compound, the IC50 in the assay with AGS cells (Homo sapiens) is 5000 to 10000 nM.

In the case of `Cc1cc(N)nc(-c2nc(F)c3c(N4C[C@H]5CC[C@@H](C4)N5)nc(OC[C@@]45CCCN4C[C@H](F)C5)nc3c2F)c1C(F)(F)F` [Compound 18, 6-(4-((1R,5S)-3,8-Diazabicyclo[3.2.1]octan-3-yl)-5,8-difluoro-2-(((2R,7aS)-2-fluorohexahydro-1H-pyrrolizin-7a-yl)methoxy)pyrido[4,3-d]pyrimidin-7-yl)-4-methyl-5-(trifluoromethyl)pyridin-2-amine bis(2,2,2-trifluoroacetate)], the GI50 at Ba/F3 KRAS-G12D cells lay in the range of 100 to 5000 nM; at Ba/F3 KRAS-G12V cells it was 5 to 10 µM. Further, in the assay with AGS cells (Homo sapiens), the IC50 lay in the range of 5000 to 10000 nM.

`C#Cc1c(F)ccc2cc(O)cc(-c3nc(F)c4c(N5C[C@H]6CC[C@@H](C5)N6)nc(OC[C@@]56CCCN5C[C@H](F)C6)nc4c3F)c12` [Compound 22, 4-(4-((1R,5S)-3,8-Diazabicyclo[3.2.1]octan-3-yl)-5,8-difluoro-2-(((2R,7aS)-2-fluorohexahydro-1H-pyrrolizin-7a-yl)methoxy)pyrido[4,3-d]pyrimidin-7-yl)-5-ethynyl-6-fluoronaphthalen-2-ol]: the GI50 at Ba/F3 KRAS-G12D cells is 2 nM; on Ba/F3 KRAS-G12V cells, 5 to 10 µM. In the assay on AGS cells (Homo sapiens), this compound displayed an IC50 of 16 nM.

As for `C#Cc1c(F)ccc2cc(O)cc(-c3ncc4c(C5=C[C@@H]6CC[C@H](C5)N6)nc(OC[C@@]56CCCN5C[C@H](F)C6)nc4c3F)c12` [Compound 23, 4-(4-((1R,5S)-8-Azabicyclo[3.2.1]oct-3-en-3-yl)-8-fluoro-2-(((2R,7aS)-2-fluorohexahydro-1H-pyrrolizin-7a-yl)methoxy)pyrido[4,3-d]pyrimidin-7-yl)-5-ethynyl-6-fluoronaphthalen-2-ol], the GI50 at Ba/F3 KRAS-G12V cells lay in the range of 5 to 10 µM. The same compound returned an IC50 in the assay with AGS cells (Homo sapiens) of 2500 nM.

On to `C#Cc1c(F)ccc2cc(O)cc(-c3ncc4c(N5[C@H]6CC[C@@H]5[C@@H](F)[C@H](N)C6)nc(OC[C@@]56CCCN5C[C@H](F)C6)nc4c3F)c12` [Compound 24, 4-4-(4-((1R,2S,3R,5S)-3-Amino-2-fluoro-8-azabicyclo[3.2.1]octan-8-yl)-8-fluoro-2-(((2R,7aS)-2-fluorohexahydro-1H-pyrrolizin-7a-yl)methoxy)pyrido[4,3-d]pyrimidin-7-yl)-5-ethynyl-6-fluoronaphthalen-2-ol], for which the GI50 at Ba/F3 KRAS-G12D cells was 1900 nM; on Ba/F3 KRAS-G12V cells, 5 to 10 µM. The concentration for half-maximal inhibition (IC50) in the assay on AGS cells (Homo sapiens) stood at 2500 nM.

Turning to `C#Cc1c(F)ccc2cc(O)cc(-c3ncc4c(N5[C@@H]6CC[C@H]5[C@H](F)[C@@H](N)C6)nc(OC[C@@]56CCCN5C[C@H](F)C6)nc4c3F)c12` [Compound 25, 4-(4-((1S,2R,3S,5R)-3-Amino-2-fluoro-8-azabicyclo[3.2.1]octan-8-yl)-8-fluoro-2-(((2R,7aS)-2-fluorohexahydro-1H-pyrrolizin-7a-yl)methoxy)pyrido[4,3-d]pyrimidin-7-yl)-5-ethynyl-6-fluoronaphthalen-2-ol], the figures for the GI50 on Ba/F3 KRAS-G12D cells and at Ba/F3 KRAS-G12V cells were 1000 nM and 5 to 10 µM, respectively. In the assay on AGS cells (Homo sapiens), this compound registered an IC50 of 2500 nM.

As for `[2H]C([2H])(Oc1nc(N2C[C@H]3CC[C@@H](C2)N3)c2c(Cl)nc(-c3cc(O)cc4ccc(F)c(C#C)c34)c(F)c2n1)[C@@]12CCCN1C[C@H](F)C2` [Compound 27, 4-(4-((1R,5S)-3,8-Diazabicyclo[3.2.1]octan-3-yl)-5-chloro-8-fluoro-2-(((2R,7aS)-2-fluorotetrahydro-1H-pyrrolizin-7a(5H)-yl)methoxy-d2)pyrido[4,3-d]pyrimidin-7-yl)-5-ethynyl-6-fluoronaphthalen-2-ol], the GI50 on Ba/F3 KRAS-G12D cells stood at 1 nM. In the assay with AGS cells (Homo sapiens), inhibition was half-maximal at 6 nM (IC50).

As for `[2H]C#Cc1c(F)ccc2cc(O)cc(-c3nc(Cl)c4c(N5C[C@H]6CC[C@@H](C5)N6)nc(OC[C@@]56CCCN5C[C@H](F)C6)nc4c3F)c12` [Compound 28, 4-(4-((1R,5S)-3,8-Diazabicyclo[3.2.1]octan-3-yl)-5-chloro-8-fluoro-2-(((2R,7aS)-2-fluorotetrahydro-1H-pyrrolizin-7a(5H)-yl)methoxy)pyrido[4,3-d]pyrimidin-7-yl)-5-(ethynyl-d)-6-fluoronaphthalen-2-ol hydrochloride], the GI50 on Ba/F3 KRAS-G12D cells is 1 nM. In the assay with AGS cells (Homo sapiens), this compound showed an IC50 of 6 nM.

The record behind these values is patent publication US20240368192A1, “Nitrogen-Containing Heterocyclic Compound, and Preparation Method Therefor, Intermediate Thereof, and Application Thereof” (Shanghai Allist Pharmaceuticals Co., Ltd., priority 2021, published 2024).
